In PubChem BioAssay (NCI):
Several values for one entry are separate records, joined by “and”; a condition that tells them apart may be missing. Equal entries are not always repeated.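 The concentration for 50% growth inhibition is given as GI50. TGI denotes the concentration required for complete inhibition of growth.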

Key:
Test in all cases: inhibition of tumour cell growth, NCI panel, 384-well format
[1] = system: ACHN renal
[2] = system: BT-549 breast
[3] = system: CAKI-1 renal
[4] = system: COLO 205 colon
[5] = system: DU-145 prostate
[6] = system: EKVX NSCLC
[7] = system: HCT-116 colon
[8] = system: HCT-15 colon
[9] = system: HL-60(TB) leukemia
[10] = system: HOP-92 NSCLC
[11] = system: HS 578T breast
[12] = system: K-562 leukemia
[13] = system: KM12 colon
[14] = system: LOX IMVI melanoma
[15] = system: M14 melanoma
[16] = system: MALME-3M melanoma
[17] = system: MCF7 breast
[18] = system: MDA-MB-231 breast
[19] = system: MDA-MB-468 breast
[20] = system: MOLT-4 leukemia
[21] = system: NCI-H226 lung
[22] = system: NCI-H23 lung
[23] = system: NCI-H322M lung
[24] = system: NCI-H522 lung
[25] = system: NCI/ADR-RES ovarian
[26] = system: OVCAR-4 ovarian
[27] = system: OVCAR-5 ovarian
[28] = system: OVCAR-8 ovarian
[29] = system: RPMI-8226 leukemia
[30] = system: RXF 393 renal
[31] = system: SF-295 CNS
[32] = system: SK-MEL-28 melanoma
[33] = system: SK-MEL-5 melanoma
[34] = system: SK-OV-3 ovarian
[35] = system: SNB-75 CNS
[36] = system: SR leukemia
[37] = system: SW-620 colon
[38] = system: TK-10 renal

SMILES: CCc1cc2c(cc1N1CCC(N3CCOCC3)CC1)C(C)(C)c1[nH]c3cc(C#N)ccc3c1C2=O
- GI50 [1]: 5.04 µM and 1.42 µM
- TGI [1]: 12.3 µM and 3.12 µM
- GI50 [2]: 4.75 µM and 0.496 µM
- TGI [2]: 9 µM and 1.62 µM
- GI50 [3]: 5.87 µM and 2.17 µM
- TGI [3]: 14.2 µM and 5.76 µM
- GI50 [4]: 7.03 µM and 1.16 µM
- GI50 [5]: 1.63 µM and 0.992 µM
- TGI [5]: 6.57 µM and 2.37 µM
- GI50 [6]: 4.67 µM and 1.37 µM
- TGI [6]: 11.4 µM and 2.98 µM
- GI50 [7]: 5.79 µM and 1.47 µM
- TGI [7]: 11.5 µM and 3.08 µM
- TGI [8]: 8.23 µM and 1.45 µM
- GI50 [9]: 6.14 µM and 0.686 µM
- TGI [9]: 10.9 µM and 1.9 µM
- GI50 [10]: 5.13 µM and 0.841 µM
- TGI [10]: 11.3 µM and 2.62 µM
- TGI [11]: 8.55 µM and 1.21 µM
- GI50 [12]: 0.633 µM
- TGI [12]: 5.17 µM
- TGI [13]: 6.7 µM and 1.47 µM
- GI50 [14]: 4.67 µM and 1.17 µM
- TGI [14]: 9.04 µM and 2.67 µM
- GI50 [15]: 5.43 µM and 0.726 µM
- TGI [15]: 13.3 µM and 4.3 µM
- GI50 [16]: 2.11 µM and 0.839 µM
- TGI [16]: 5.69 µM and 2.24 µM
- TGI [17]: 8.58 µM and 2.05 µM
- GI50 [18]: 1.11 µM and 1.26 µM
- TGI [18]: 2.73 µM and 3.32 µM
- GI50 [19]: 2.56 µM and 0.567 µM
- TGI [19]: 6.54 µM and 1.71 µM
- GI50 [20]: 1.92 µM and 0.302 µM
- TGI [20]: 7.47 µM and 1.5 µM
- GI50 [21]: 3.1 µM
- TGI [21]: 8.34 µM and 2.64 µM
- GI50 [22]: 4.88 µM and 1.47 µM
- TGI [22]: 13.1 µM and 10.9 µM
- TGI [23]: 29.4 µM and 3.81 µM
- GI50 [24]: 2.92 µM and 1.15 µM
- TGI [24]: 8.64 µM and 2.58 µM
- GI50 [25]: 0.666 µM and 1.54 µM
- TGI [25]: 2.96 µM and 4.51 µM
- GI50 [26]: 1.19 µM and 0.437 µM
- TGI [26]: 2.46 µM and 1.5 µM
- GI50 [27]: 5.33 µM and 1.21 µM
- GI50 [28]: 4.12 µM and 1.11 µM
- TGI [28]: 8.68 µM and 2.36 µM
- GI50 [29]: 1.74 µM and 0.399 µM
- TGI [29]: 4.44 µM and 1.85 µM
- GI50 [30]: 2.45 µM and 0.547 µM
- TGI [30]: 7.13 µM and 1.88 µM
- TGI [31]: 11.3 µM and 2.17 µM
- GI50 [32]: 17.5 µM and 1.8 µM
- TGI [32]: 31.3 µM and 3.56 µM
- TGI [33]: 8.31 µM and 1.6 µM
- GI50 [34]: 11 µM and 1.15 µM
- TGI [35]: 10.6 µM and 1.07 µM
- TGI [36]: 0.686 µM
- GI50 [37]: 5.07 µM and 0.686 µM
- GI50 [38]: 11.4 µM and 1.45 µM
- TGI [38]: 26.6 µM and 3.09 µM
